Legend:
[1] = system: FGFR1-amplified cells (H1581, H520); assay: Immunoblotting of phosphorylated FGFR and downstream molecules; format: cell-based
Excerpt: (§1) The following antibodies were used for immunoblotting: β-actin (MPBioscience), phospho-FGFR(Y653, Y654), pFRS2 (Tyr196), p-AKT (S473), pS6, S6, AKT, p-ERK, ERK (Cell Signaling Technology), total-FGFR1 (Santa Cruz), anti-rabbit-HRP, anti-mouse-HRP-antibody (Millipore).

[2] = system: EGFR-mutant cell line HCC827; assay: as above; format: cell-based
Excerpt: as §1

FGFR1 = FGFR1 (Homo sapiens, UniProt P11362); conditions: FGFR1 one of only two of 105 kinases
Chain of FGFR1 (P11362 22-822): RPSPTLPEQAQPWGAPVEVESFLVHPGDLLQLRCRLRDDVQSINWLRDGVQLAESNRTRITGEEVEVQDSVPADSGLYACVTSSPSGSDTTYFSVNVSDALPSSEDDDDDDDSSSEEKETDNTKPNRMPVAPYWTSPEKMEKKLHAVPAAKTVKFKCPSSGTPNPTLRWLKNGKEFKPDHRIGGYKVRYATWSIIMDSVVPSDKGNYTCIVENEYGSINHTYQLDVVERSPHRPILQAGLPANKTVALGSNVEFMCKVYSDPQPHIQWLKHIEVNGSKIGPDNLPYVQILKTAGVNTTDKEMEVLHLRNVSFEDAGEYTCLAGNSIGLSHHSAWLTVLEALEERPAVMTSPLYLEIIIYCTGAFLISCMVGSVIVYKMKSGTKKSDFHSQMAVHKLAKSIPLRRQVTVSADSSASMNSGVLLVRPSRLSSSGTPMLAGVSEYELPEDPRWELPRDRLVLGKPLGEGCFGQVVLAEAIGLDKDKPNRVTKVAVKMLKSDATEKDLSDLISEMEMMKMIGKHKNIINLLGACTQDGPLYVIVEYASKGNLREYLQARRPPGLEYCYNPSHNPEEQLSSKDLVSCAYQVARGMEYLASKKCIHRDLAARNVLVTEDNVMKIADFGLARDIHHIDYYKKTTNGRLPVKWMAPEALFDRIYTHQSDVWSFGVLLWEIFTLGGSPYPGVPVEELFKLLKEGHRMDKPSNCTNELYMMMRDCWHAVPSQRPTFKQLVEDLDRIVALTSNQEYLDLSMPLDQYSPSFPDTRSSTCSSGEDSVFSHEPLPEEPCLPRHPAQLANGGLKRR

[3] = system: FGFR1 amplified cell line H520; assay: FGFR1 phosphorylation by immunoprecipitation; format: cell-based; conditions: H520, 1 μM
Method: For the detection of FGFR1 phosphorylation, whole-cell lysates (0.5-1 mg) in NP40 lysis buffer was incubated with agarose A/G Plus preconjugated with the FGFR1 antibody. Immunoprecipitates were washed in NP40 lysis buffer, boiled in sample buffer, and subjected to SDS-PAGE followed by immunoblotting using an anti phospho-tyrosine residues antibody to detect specific phosphorylation of FGFR1.

[4] = system: H1975 (FGFR1 wild type) cells; assay: Xenograft mouse model, EGFR-mutant H1975 cells; format: in vivo, mice; conditions: xenografted EGFR-mutant H1975 cells
Method: (§2) All animal procedures were approved by the local animal protection committee and the local authorities. 5*10^6 tumor cells were injected subcutaneously into male nude mice.

[5] = system: FGFR1-amplified cell lines; assay: Soft-agar colony formation assay; format: cell-based; conditions: FGFR1-amplified cells
Method: Cells were suspended in growth media containing 10% FCS and 0.6% agar and plated in triplicate on 50 μl solidified growth medium (10% FCS; 1.0% agar). Growth medium containing indicated compound concentrations was added on top. Colonies were analyzed using the Scanalyzer imaging system (Lemnatec, Germany).

[6] = system: 83 lung cancer cell lines; assay: Cell-line screening, viability by cellular ATP content (CellTiter-Glo); format: cell-based
[7] = system: PDGFRA- and FGFR1-amplified cell line H1703; conditions: 96 h of compound treatment, increasing concentrations
Method: Viability was determined after 96 hours by measuring cellular ATP content (CellTiter-Glo, Promega). Half-maximal inhibitory concentrations (GI50) were determined using the statistical data analysis software “R” with the package “ic50”.

[8] = system: lung cancer cells carrying amplified FGFR1; assay: Apoptosis by Annexin V/PI flow cytometry; format: cell-based; conditions: 1.0 μM, 72 hours, versus DMSO; specifically in FGFR1-amplified cells; p=0.008
Method: Finally the cells were analyzed on a FACS Canto FlowCytometer (BD Biosciences).

H1581 cells = assay: Xenograft mouse model, FGFR1-amplified H1581 cells; format: in vivo; conditions: 100 mg/kg twice a day, oral gavage, mice engrafted with FGFR1-amplified cells
Method: as §2

[9] = system: phospho-ERK, phospho-AKT in FGFR1-amplified tumors; assay: Immunohistochemical staining of explanted tumors; format: in vivo, mice; conditions: end of treatment
Excerpt: Mice bearing FGFR1-amplified tumors were sacrificed at the end of treatment. Tumors were exgrafted and embedded in paraffin. […] Antibodies recognizing pAKT, pERK, AKT and ERK were obtained from Cell signaling.

[10] = system: FGFR1-amplified lung cancer cells expressing FGFR1^V561M; conditions: 0.5 μM and 1.0 μM
Excerpt: The V561M mutation was introduced into FGFR1 cloned in pBABE-Puro by site-directed mutagenesis. Replication-incompetent retroviruses were produced by contransfection with the pCL-ampho plasmid in HEK 293T cells. Hairpin shRNA targeting the different genes were ordered from Sigma. Replication-incompetent lentiviruses were produced from pLKO.1-Puro based vectors by contransfection with Δ8.9 and pMGD2 in 293T cells as described previously (Sos et al., Cancer Res 70, 868-874 (2010)). After transduction cells were selected with puromycin (1.5 μg/ml) and five days after selection cells were counted using trypan blue.

[11] = Pharmacokinetics of PD173074 in mice; format: in vivo
Method: Pharmacokinetic data were created by taking blood-samples from male nude mice by puncture of the tail-vein under isoflurane anesthesia. […] All blood samples were centrifuged; the blood plasma-containing supernatant was extracted and stored at -20° C. Analytic samples were prepared from the blood plasma by acetonitrile extraction with an internal standard of 1 μM griseofulvin. […] Pharmacokinetic data was evaluated with WinNonlin Software (Pharsight).

CCN(CC)CCCCNc1ncc2cc(-c3cc(OC)cc(OC)c3)c(NC(=O)NC(C)(C)C)nc2n1 [PD173074]
levels of phosphorylated FGFR1 [1]: reduced the levels of phosphorylated FGFR1
phosphorylation of ERK [1]: inhibition of phosphorylation of ERK
levels of phosphorylated FGFR1 and FRS2 [2]: not in the EGFR-mutant cell line HCC827
kinase inhibition (FGFR1): strongly inhibited
phosphorylation of FGFR1 (phosphotyrosine after immunoprecipitation) [3]: leads to dephosphorylation of FGFR1
tumor regression [4]: did not show signs of regression
colony formation in soft agar [5]: decreased colony formation
sensitivity of FGFR1-amplified cell line H520 ([6]; H520, derived from a squamous-cell lung cancer patient): sensitive
GI50 ([6]; four of the 83 lung cancer cell lines tested, viability after 96 hours, read-out: half-maximal growth inhibitory concentration (GI50)): < 1000 nM
growth inhibition ([6]; specifically in lung cancer cells carrying amplified FGFR1, p=0.0002): inhibited growth
activity on viability of H1703 cells [7]: not active
induction of apoptosis [8]: induced apoptosis
tumor size (H1581 cells): tumor shrinkage
levels of phospho-AKT in explanted tumors [9]: not of phospho-AKT
levels of phospho-ERK in explanted tumors [9]: reduction in the levels of phospho-ERK
cytotoxicity and dephosphorylation of FGFR on expression of FGFR1^V561M [10]: abolished
exposure ([11]; 50 mg/kg twice a day compared to 100 mg/kg twice a day): only a minimal exposure
half-life in vivo ([11]; mice): short half-life
